The test system of data set [1] is PANC1 pancreatic adenocarcinoma cells. As to the kind of experiment: PANC1 tumor growth in vivo. Also on record: species or system nude mice. As to conditions: 60 mg/kg ip bolus every 48 hours, 5 doses. On the procedure: Dose: 60 mg/kg ip bolus injection every 48 hours. 5 total doses. 5-7 tumors per group. PANC1 pancreatic adenocarcinoma cell line.
PANC1 pancreatic adenocarcinoma cells were implanted subcutaneously into nude mice. Mice were then given a bolus injection of one of the inventive irestatins (1401, 9337, 3611 or 9389) at a dose of 60 mg/kg every 48 hours for a total of 5 doses, with 5-7 tumors being treated per group.

In another data set the test system is XBP1-luciferase reporter. Put plainly: XBP-luciferase reporter high throughput screen / IRE IC50 (tunicamycin + thapsigargin induced). Format: cell-based, human. On the procedure: Specifically, HT1080 fibrosarcoma cells stably transfected with the unspliced XBP-1-luciferase reporter construct (3000/well) were plated onto a solid white 384 well microplate with a multidrop dispenser (40 μL per well). The plates were then placed into an automated incubator. After 24 hours of growth, a mixture of tunicamycin (1 μg/ml) and thapsigargin (100 nM) inducers were added, and candidate compounds were then added to the plates. After 24 hours, luciferase reagent (10 μl) was added to each well and the plates were read in a Molecular Devices Analyst GT (0.2 second read per well).
As described above in Example 2, HT1080 fibrosarcoma cells stably expressing the XBP-luciferase reporter were plated in a 384 well microplate (4000 cells/well). After 24 hours, cells were treated with a mixture of tunicamycin (4 μg/ml) and thapsigargin (0.4 μM), followed by the addition of one compound per well (10 μM). We screened a total of 66,000 diverse molecules obtained from Specs, Chembridge and ChemRX. Twenty-four hours post-induction, BriteGlo luciferase substrate (10 μl) was added to each well and the signal intensity determined in a plate reader (0.2 s read per well). […] We retested 431 compounds from the initial screen, and selected 58 compounds for additional analysis, including calculation of IC50 values and inhibition of a CMV-luciferase reporter.
Compounds of the screening library with structural similarity to compound 9389 (see Table 1) have been identified and in some cases further assayed for inhibitory activity. Compounds listed with “IC50” values were assayed secondarily after initially being identified in the high throughput screen. Each value represents a separate calculation of reporter inhibition based upon the high throughput robotic screening platform. The actual IC50 values are calculated and represent an estimate of the potency of each compound. This assay is not considered to be accurate below a concentration of 10 nM. Compounds classified with “mild” activity inhibited the XBP1-luciferase reporter by 10-30%. Compounds classified with “moderate” activity inhibited the XBP1-luciferase reporter by 30-75%. Compounds classified with “potent” activity inhibited the XBP1-luciferase reporter by 75-100%. Compounds classified with “undetected” activity inhibited the XBP1-luciferase reporter by less than 10% under the defined conditions.
On the technique in general: Reporter assays use an easily measured gene product as a stand-in for the process of interest.

For another data set, the system named is XBP-1 splicing. As to the kind of experiment: Bioluminescence imaging of XBP-1 splicing in HT1080 XBP-1s-luciferase tumors. The class given is in vivo. As to conditions: for toxicity: nude mice. On the procedure: Several nude mice were implanted with HT1080 cells stably expressing a XBP-1s-luciferase construct and XBP-1 activation was examined using bioluminescence imaging. Imaging was performed using the In Vivo Imaging System (IVIS, Xenogen Corporation, Alameda, Calif.) in the Stanford Center for Innovation in In Vivo Imaging (SCI3). This device consists of a cooled CCD camera mounted on a light-tight specimen chamber.

For the next data set, the system named is XBP-luciferase reporter. As to the kind of experiment: XBP-luciferase reporter assay under Tm or hypoxia, HT1080 cells. Format: cell-based, human. As to conditions: Tm alone, 24 hours. On the procedure: (§1) HT1080 cells stably expressing the XBP-luciferase construct were grown in 60 mm dishes to 60-70% confluency. Following hypoxia treatment, cells were washed twice with PBS, lysed in 400 μl 1× reporter lysis buffer (RLB) (Promega, Madison Wis.) for 30 min at 24° C. Lysates (100 μl) were mixed with an equal volume of luciferase substrate (Promega), and assayed using a luminometer. For 5×-UPRE-luciferase reporter assays, cells were co-transfected with the appropriate reporter plasmid and a control plasmid (pSV40-beta-gal) using Lipofectamine 2000 (Invitrogen, San Diego, Calif.). Twenty-four hours after transfection, fresh media was added, and cells were treated with Tm or shifted to hypoxia. After treatment, cells were lysed in 1×RLB and analyzed for luciferase activity as described above. Beta-galactosidase activity was determined using the beta-galactosidase enzyme assay system (Promega).
A. XBP-luciferase reporter construct. Firefly luciferase was inserted downstream of the IRE1α splice site in human XBP-1 to enable the conditional translation of luciferase under ER stress in an IRE1α-dependent manner. B. Selective inhibition of the XBP-luciferase reporter by irestatin 9389. HT1080 human fibrosarcoma cells stably expressing the XBP-luciferase reporter or CMV-luciferase were cultured in the presence of Tm (4 μg/ml) and Tg (0.4 μM) and irestatin 9389 at the indicated concentrations. After 24 hours, luciferase activity was analyzed in an automated plate reader. For each cell line, values are expressed as the percent inhibition of the median for Tm/Tg-treated wells, corrected for background. C. Structure of irestatin 9389. D. XBP-luciferase reporter assay. HT1080 cells stably expressing the XBP-luciferase reporter were exposed to Tm (4 μg/ml) for 24 hours or hypoxia (0.1% oxygen) for 24 or 48 hours, in the presence of DMSO or irestatin 9389 (1 μM) as indicated. Values are expressed as the fold increases over uninduced levels. E. 5×-UPRE reporter assay. HT1080 cells were co-transfected with 5×-UPRE luciferase and SV40-beta-gal reporter plasmids, followed by exposure to Tm or hypoxia as in D. For each condition, luciferase activity is normalized to beta-galactosidase expression levels as an internal control for transfection efficiency. F. Western immunoblot analysis of XBP-1s. HT1080 cells were left untreated (lane 2) or exposed to Tm (4 μg/ml) for 20 hours in the presence of DMSO vehicle (lane 1) or the indicated irestatins (2 μM; lanes 3-6). […] Cells were harvested, lysed, and analyzed by immunoblotting with antisera specific for HIF-1α (top), XBP-1s (middle) or actin (bottom). […] Total RNA was analyzed by Northern blotting using radiolabeled probes specific for P58^IPK or DER-1. […]

The subject of data set [2] is 5×-UPRE luciferase reporter (XBP-1s). As to the kind of experiment: 5×-UPRE luciferase reporter assay, HT1080 cells. As to conditions: Tm alone. The class given is cell-based, human. How it is done: as §1
A. XBP-luciferase reporter construct. Firefly luciferase was inserted downstream of the IRE1α splice site in human XBP-1 to enable the conditional translation of luciferase under ER stress in an IRE1α-dependent manner. B. Selective inhibition of the XBP-luciferase reporter by irestatin 9389. HT1080 human fibrosarcoma cells stably expressing the XBP-luciferase reporter or CMV-luciferase were cultured in the presence of Tm (4 μg/ml) and Tg (0.4 μM) and irestatin 9389 at the indicated concentrations. After 24 hours, luciferase activity was analyzed in an automated plate reader. For each cell line, values are expressed as the percent inhibition of the median for Tm/Tg-treated wells, corrected for background. C. Structure of irestatin 9389. […] Values are expressed as the fold increases over uninduced levels. […] Cells were harvested, lysed, and analyzed by immunoblotting with antisera specific for HIF-1α (top), XBP-1s (middle) or actin (bottom). […] Total RNA was analyzed by Northern blotting using radiolabeled probes specific for P58^IPK or DER-1. […]
Since these assays employed a chimeric XBP-luciferase substrate, we next determined whether irestatin 9389 could inhibit the function of endogenous XBP-1s. […]

The subject of another data set is Grp78. As to the kind of experiment: Western immunoblot of Grp78, HT1080 cells. Format: cell-based, human. As to conditions: Tm (5 μg/ml) for 8 hours, positive control. On the procedure: Cells (2×10^6) were cultured in 10-cm dishes, collected using a cell scraper at 4° C., and lysed by addition of 150 μl cell lysis buffer [50 mM Tris pH 7.4, 150 mM NaCl, 10% glycerol, 0.5% Triton X-100. 0.5% NP-40, 2 mM Na3VO4, 20 mM beta-glycerophosphate, 10 mM NaF, 1 mM DTT, 1 mM PMSF). Lysates were centrifuged for 5 min at 10,000×g, and proteins (˜40 μg) were resolved by SDS-PAGE followed by semi-dry transfer to nitrocellulose membranes. Membranes were blocked in TBS-5% milk supplemented with 0.1% Tween-20. The blots were then probed overnight with relevant antibodies, washed, and incubated for 2 hours with species-specific secondary antibodies conjugated to horseradish peroxidase. After washing in block solution, immunoreactive material was detected by enhanced chemiluminescence (SuperSignal West Dura Extended, Pierce, Inc., Rockville, Ill.).
HT1080 cells were exposed to DMSO vehicle (lane 1), irestatin 9389 (2.5 μM; lane 2) for 16 hours or Tm (5 μg/ml; lane 3) for 8 hours. Following treatments, cells were harvested, lysed, and analyzed by immunoblotting using anti-Grp78 antibody (top) or anti-actin (bottom) as a loading control. […] Cell lysates were analyzed by Western immunoblotting using anti-IRE1α (bottom) or anti-phospho-IRE1α antibodies (top). […] Lysates were analyzed by Western blot using antisera specific for phospho-JNK1 (top) or total JNK1 (bottom). […]
Background: In western blotting, separated proteins are transferred to a membrane and probed.

Where “and” joins values, the source holds several entries; their conditions need not be identical. Equal entries are not always repeated.

The source of these data is patent US20130150399A1, “INHIBITORS OF THE UNFOLDED PROTEIN RESPONSE AND METHODS FOR THEIR USE” (The Board of Trustees of the Leland Stanford Junior …, priority 2006, published 2013).

With `CN1CCN(c2ccc3sc4ccccc4c(=O)c3c2)CC1` [Compound 1401], in data set [1], the tumor growth entry is “significant tumor growth was observed in untreated mice, but not in mice treated with the irestatins”. Turning to `Cc1cccc(NC(=O)c2sc3nc(C)cc(C(F)(F)F)c3c2N)n1` [Compound 2750], in the data set with XBP1-luciferase reporter (Assay HTS, Conc 10 uM), the “% Inh” value is given as 16.6%.

Turning to `Cc1csc(NC(=O)c2sc3nc4c(c(C(F)(F)F)c3c2N)CCC4)n1` [Compound 5500], the “% Inh” value in the data set on XBP1-luciferase reporter (Assay IRE IC50, Conc 20 uM) was 104.4%. The toxicity result with XBP-1 splicing (50 mg/kg IP) was “no apparent toxicity”. In addition, the “effect on XBP-1 splicing (bioluminescence)” value with XBP-1 splicing (50 mg/kg IP, at the time points assayed) is listed as “did not have any affect on XBP-1 splicing”. tunicamycin [Tm, reference compound]: the “increase of XBP-luciferase activity” value in the data set with XBP-luciferase reporter was 60 fold. The “increase of 5×-UPRE luciferase activity over untreated cells” value in data set [2] is given as around 12 fold. The Grp78 levels result with Grp78 was “robustly induced Grp78”.

Turning to `Cc1csc(NC(=O)c2sc3nc4c(c(C(F)(F)F)c3c2N)CCCC4)n1` [Compound 4335], in the data set with XBP1-luciferase reporter (Assay IRE IC50, Conc 20 uM), the “% Inh” value turned out to be 70.4%.

On to `Cc1cc2nc(NC(=O)CCCC(=O)O)sc2cc1C` [Compound 3611], for which the tumor growth result in data set [1] is on record as “significant tumor growth was observed in untreated mice, but not in mice treated with the irestatins”. As for `Nc1ccc(-c2ccc(-c3ccc(N)cc3)c(N)c2)cc1` [Compound 3281], the toxicity entry with XBP-1 splicing (50 mg/kg IP) is reported as “no apparent toxicity”. For the same compound, the “XBP-1 splicing activity (bioluminescence)” value in the data set with XBP-1 splicing (50 mg/kg IP, 8 hrs after injection) is “undetectable”. Besides, the “XBP-1 splicing (bioluminescence)” value in the data set with XBP-1 splicing (8 hrs after a second injection) was “again inhibited”. `Cc1cn2cc(-c3ccc4ccccc4c3)nc2s1` [Compound 9337]: the tumor growth entry in data set [1] is on record as “significant tumor growth was observed in untreated mice, but not in mice treated with the irestatins”. As to `N#Cc1cccc(NC(=O)c2sc3nc4c(c(C(F)(F)F)c3c2N)CCC4)c1` [Compound 8878], the “% Inh” value in the data set with XBP1-luciferase reporter (Assay IRE IC50, Conc 20 uM) was 72.4% and 50.0%.
